From US8067424B2, “Selective inhibitors for cyclin-dependent kinases” (Emory University, priority 2007, dated 2011) come the findings set out here.

Holding throughout (type): biochemical
For one experiment, the target named is PKA (Homo sapiens, UniProt P17612). Briefly: Kinase screen: PKA assay. The method, then: (§1) Generally, the same procedure was used for all assays. Since the total assay volume was 25.5 microliters, 0.5 microliters of inhibitors at 51× assay concentration were added to the plates before any other addition.
(§2) The basic procedure was to add 0.5 microliters inhibitor/control in DMSO to plate. Fifteen microliters of enzyme/substrate/buffer mix were added and incubated for 5 min. Ten microliters MgATP at the relevant concentration were added and incubated for 30 min. The assay was stopped by adding 5 microliters of 3% orthophosphoric acid. The assay was transferred to a p81 filter plate and read in a scintillation counter of 30 sec/well. Note that this assay procedure was not followed for MKK1, which instead involved a two-step assay, and PKC alpha, which required the addition of lipid vesicles.
PKA assay: PKA (5-20 mU diluted in 20 mM MOPS pH 7.5, 1 mM EDTA, 0.01% Brij35, 0.1% b-mercaptoethanol, 1 mg/ml BSA) was assayed against Kemptide (LRRASLG) (SEQ ID NO: 6) in a final volume of 25.5 μl containing 8 mM MOPS pH 7.5, 0.2 mM EDTA, 30 μM substrate peptide, 10 mM magnesium acetate and 0.005 mM [33P-g-ATP] (50-1000 cpm/pmole) and incubated for 30 min at room temperature. Assays were stopped by addition of 5 μl of 0.5 M (3%) orthophosphoric acid and then harvested onto P81 Unifilter plates with a wash buffer of 50 mM orthophosphoric acid.

For another experiment, the target named is BTK (Homo sapiens, UniProt Q06187). Description: Kinase screen: BTK assay. The settings on record: 10 micromolar compound; for remaining activity at 10 µM: read-out: mean activity remaining (as a percentage of the original activity), BTK. The method, then:
as §1, §2
(50-1000 cpm/pmole) and incubated for 30 min at room temperature. Assays were stopped by addition of 5 μl of 0.5 M (3%) orthophosphoric acid and then harvested onto P81 Unifilter plates with a wash buffer of 50 mM orthophosphoric acid.

In another experiment the target is T1, EPH-B3 (Homo sapiens, UniProt P54753).
T1 sequence (P54753 34-998): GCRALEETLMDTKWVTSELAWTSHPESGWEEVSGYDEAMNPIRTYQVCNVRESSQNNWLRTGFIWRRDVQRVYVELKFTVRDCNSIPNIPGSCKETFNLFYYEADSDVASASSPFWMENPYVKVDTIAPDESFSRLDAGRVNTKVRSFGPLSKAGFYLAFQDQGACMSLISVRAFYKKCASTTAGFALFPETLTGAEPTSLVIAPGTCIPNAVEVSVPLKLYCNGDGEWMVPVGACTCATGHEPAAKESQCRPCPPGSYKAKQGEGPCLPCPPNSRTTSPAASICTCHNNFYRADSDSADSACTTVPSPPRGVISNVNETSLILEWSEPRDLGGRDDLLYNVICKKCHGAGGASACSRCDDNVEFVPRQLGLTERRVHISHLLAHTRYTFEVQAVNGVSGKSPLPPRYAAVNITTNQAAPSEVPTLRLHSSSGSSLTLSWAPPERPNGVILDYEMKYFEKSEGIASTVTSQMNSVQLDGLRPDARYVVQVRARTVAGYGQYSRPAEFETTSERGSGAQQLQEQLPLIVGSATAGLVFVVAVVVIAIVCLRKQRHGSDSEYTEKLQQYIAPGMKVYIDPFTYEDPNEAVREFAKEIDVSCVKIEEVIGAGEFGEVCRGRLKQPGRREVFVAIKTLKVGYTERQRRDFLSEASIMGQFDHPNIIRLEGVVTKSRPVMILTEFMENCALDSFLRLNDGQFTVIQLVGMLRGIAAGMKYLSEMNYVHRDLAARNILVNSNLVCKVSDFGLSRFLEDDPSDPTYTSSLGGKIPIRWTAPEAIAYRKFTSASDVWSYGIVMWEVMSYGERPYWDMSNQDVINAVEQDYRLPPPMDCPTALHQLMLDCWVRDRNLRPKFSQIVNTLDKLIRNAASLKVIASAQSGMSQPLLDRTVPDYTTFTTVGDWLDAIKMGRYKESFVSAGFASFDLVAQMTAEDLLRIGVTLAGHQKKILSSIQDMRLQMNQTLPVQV
Description: Kinase screen: EPH-B3 assay. The settings on record: 10 micromolar compound; for remaining activity at 10 µM: read-out: mean activity remaining (as a percentage of the original activity), EPH-B3. The method, then: as §1, §2
EPH-B3 assay: EPH-B3 (5-20 mU diluted in 50 mM Tris pH 7.5, 0.1 mM EGTA, 1 mg/ml BSA) was assayed against a substrate peptide (Poly Glut Tyr) in a final volume of 25.5 μl containing 50 mM Tris pH 7.5, 1 mg/ml substrate peptide, 10 mM magnesium acetate and 0.005 mM [33P-g-ATP] (50-1000 cpm/pmole) and incubated for 30 min at room temperature. Assays were stopped by addition of 5 μl of 0.5 M (3%) orthophosphoric acid and then harvested onto P81 Unifilter plates with a wash buffer of 50 mM orthophosphoric acid.

Another experiment deals with PKCα (Homo sapiens, UniProt P17252). Description: Kinase screen: PKCa assay. As to the method:
as §1, §2
PKCa assay: PKCa (5-20 mU diluted in 20 mM Hepes pH 7.4, 0.03% Triton X-100) was assayed against Histone H1 in the presence of PtdSerine and DAG (0.1 mg/ml. and 10 μg/ml) and 0.1 mM CaCl2. The assay was carried out in a final volume of 25.5 μl containing 20 mM Hepes pH 7.4, 0.03% Triton X-100, 0.1 mg/ml Histone H1, 10 mM magnesium acetate and 0.02 mM[33P-g-ATP] (50-1000 cpm/pmole) and incubated for 30 min at room temperature. Assays were stopped by addition of 5 μl of 0.5 M (3%) orthophosphoric acid and then harvested onto P81 Unifilter plates with a wash buffer of 50 mM orthophosphoric acid.
PtdSer/DAG preparation: PtdSer stock was 10 mg/ml in MeOH/Chloroform (1:2). The required amount was dried down and re-suspended in an appropriate volume of 10 mM Hepes pH 7.4, vortexed, and briefly sonicated (2×10^−15 seconds at 10-15 seconds apart). DAG stock was 10 mg/ml in MeOH/chloroform (1:2). The required amount was dried down and sonicated PtdSer solution was added, vortexed and sonicated.

Setting [1] is: 10 micromolar compound, read-out: mean activity remaining (as a percentage of the original activity), PKA.
The mark [2] stands for this setting: 10 micromolar compound, read-out: mean activity remaining (as a percentage of the original activity), PKCa.

Where two headings read alike, the source gives them in different places.

Broadly, the remaining activity is the signal under treatment as a percentage of the control signal.

Chain of BTK (Q06187 whole entry, species assumed): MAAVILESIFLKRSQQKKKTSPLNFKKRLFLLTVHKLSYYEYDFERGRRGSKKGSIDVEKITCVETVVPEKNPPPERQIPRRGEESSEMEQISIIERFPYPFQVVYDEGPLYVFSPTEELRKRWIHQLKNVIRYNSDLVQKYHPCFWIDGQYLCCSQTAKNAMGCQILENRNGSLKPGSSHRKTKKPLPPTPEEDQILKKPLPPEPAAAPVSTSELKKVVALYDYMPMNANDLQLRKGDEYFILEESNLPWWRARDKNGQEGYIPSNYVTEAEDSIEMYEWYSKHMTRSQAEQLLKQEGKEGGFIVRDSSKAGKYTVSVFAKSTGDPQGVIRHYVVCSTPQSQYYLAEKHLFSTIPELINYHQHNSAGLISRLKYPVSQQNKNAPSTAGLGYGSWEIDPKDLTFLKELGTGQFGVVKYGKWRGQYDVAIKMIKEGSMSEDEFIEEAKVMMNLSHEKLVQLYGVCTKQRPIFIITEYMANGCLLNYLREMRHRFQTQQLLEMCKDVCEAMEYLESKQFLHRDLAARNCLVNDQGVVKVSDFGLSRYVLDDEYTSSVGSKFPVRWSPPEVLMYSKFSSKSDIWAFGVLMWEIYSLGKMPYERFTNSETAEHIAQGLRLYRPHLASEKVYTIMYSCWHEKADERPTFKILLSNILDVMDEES

For the compound `CC[C@H](CO)Nc1cc(NCc2ccccc2)n2ncc(C(C)C)c2n1` [ICEC0067], the remaining activity at 10 µM at PKA (setting [1]) was 93%; on BTK, 84%; at EPH-B3, 79%; on PKCα (setting [2]), 93%.
In the case of `C=C[C@H](CO)Nc1cc(NCc2ccccc2)n2ncc(C(C)C)c2n1` [ICEC0065], the remaining activity at 10 µM at PKA (setting [1]) came to 107%; at BTK, 94%; on EPH-B3, 83%; on PKCα (setting [2]), 101%.
On to `CC(C)c1cnn2c(NCc3ccccc3)cc(N[C@@H](CO)[C@H](O)CO)nc12` [ICEC0318, (3S)-3-(7-(Benzylamino)-3-isopropylpyrazolo[1,5-a]pyrimidin-5-ylamino)butane-1,2,4-triol], for which the remaining activity at 10 µM at PKA (setting [1]) was determined as 93%; on BTK, 91%; on EPH-B3, 72%; on PKCα (setting [2]), 96%.
For `CC(C)c1cnn2c(NCc3ccccc3F)cc(NCCCCCN)nc12` [ICEC-0232], at PKA (10 micromolar compound), the “mean activity remaining (as a percentage of the original activity), PKA” value is 96%. In addition, on BTK, the “mean activity remaining (as a percentage of the original activity), BTK” value came to 90%. The “mean activity remaining (as a percentage of the original activity), EPH-B3” value on EPH-B3 is 88%. Further, on PKCα (10 micromolar compound), the “mean activity remaining (as a percentage of the original activity), PKCa” value is listed as 80%.
Take `CC(C)c1cnn2c(NCc3ccccc3)cc(NCCCCCCCN)nc12` [BS-181]: the remaining activity at 10 µM on PKA (PKA, 10 μM, read-out: Mean Remaining Enzyme Activity (%)) was 110%; at PKCα (PKCα, 10 μM, read-out: Mean Remaining Enzyme Activity (%)), 98%.
